Assay results taken from the supplement of paper PMC4862054.

Experiments:
BT-474 [1] = test: normalised viability (% of control), CellTiter-Blue; higher = more viable cells (about 100 = DMSO control); details: 100 nM; incubation time: 72 h
Procedure, shortened: (§1)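 Plates were quality-checked by Z'-factor and normalised to vehicle (100) and a positive kill control (0). The underlying assay incubated breast cancer cell lines for 72 h on 384-well plates with compound, then added 2.5 µl CellTiter-Blue for 2 h at 37 °C and read at 560/590 nm. The value is normalised viability at a single listed concentration of the series.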

BT-549 [2] = test: as above; details: 100 nM; incubation time: 72 h
Procedure, shortened: as §1

DU-4475 [3] = test: as above; details: 10 nM; incubation time: 72 h
Procedure, shortened: as §1

HCC1599 [4] = test: as above; details: 100 nM; incubation time: 72 h
Procedure, shortened: as §1

HDQ-P1 [5] = test: as above; details: 10 nM; incubation time: 72 h
Procedure, shortened: as §1

MDA-MB-231 [6] = test: as above; details: 100 nM; incubation time: 72 h
Procedure, shortened: as §1

MDA-MB-436 [7] = test: as above; details: 100 nM; incubation time: 72 h
Procedure, shortened: as §1

MDA-MB-453 [8] = test: as above; details: 10 nM; incubation time: 72 h
Procedure, shortened: as §1

MFM-223 [9] = test: as above; details: 100 nM; incubation time: 72 h
Procedure, shortened: as §1

BT-474 [10] = test: drug sensitivity score (DSS), CellTiter-Blue viability (DSS (AUC-based score)); higher = stronger viability inhibition; extreme values may be limits of the assay; details: incubation time: 72 h
Method: (§2)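 DSRT with the CellTiter-Blue (resazurin reduction) viability readout, fluorescence 560/590 nm, 72 h incubation. Plates were normalised to DMSO and benzethonium chloride controls. DSS is computed from the area under the fitted dose-response curve (5 or 9 concentrations).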

BT-549 [11] = test: as above; details: incubation time: 72 h
Method: as §2

CAL-120 = test: as above; details: incubation time: 72 h
Method: as §2

CAL-148 = test: as above; details: incubation time: 72 h
Method: as §2

CAL-51 = test: as above; details: incubation time: 72 h
Method: as §2

CAL-85-1 = test: as above; details: incubation time: 72 h
Method: as §2

DU-4475 [12] = test: as above; details: incubation time: 72 h
Method: as §2

HCC1143 = test: as above; details: incubation time: 72 h
Method: as §2

HCC1599 [13] = test: as above; details: incubation time: 72 h
Method: as §2

HCC1937 = test: as above; details: incubation time: 72 h
Method: as §2

HDQ-P1 [14] = test: as above; details: incubation time: 72 h
Method: as §2

Hs578T = test: as above; details: incubation time: 72 h
Method: as §2

MDA-MB-231 [15] = test: as above; details: incubation time: 72 h
Method: as §2

MDA-MB-436 [16] = test: as above; details: incubation time: 72 h
Method: as §2

MDA-MB-453 [17] = test: as above; details: incubation time: 72 h
Method: as §2

MDA-MB-468 = test: as above; details: incubation time: 72 h
Method: as §2

MFM-223 [18] = test: as above; details: incubation time: 72 h
Method: as §2

SK-BR-3 = test: as above; details: incubation time: 72 h
Method: as §2

| SMILES | normalised viability (BT-474 [1]) | normalised viability (BT-549 [2]) | normalised viability (DU-4475 [3]) | normalised viability (HCC1599 [4]) | normalised viability (HDQ-P1 [5]) | normalised viability (MDA-MB-231 [6]) | normalised viability (MDA-MB-436 [7]) | normalised viability (MDA-MB-453 [8]) | normalised viability (MFM-223 [9]) | drug sensitivity score (BT-474 [10]) | drug sensitivity score (BT-549 [11]) | drug sensitivity score (CAL-120) | drug sensitivity score (CAL-148) | drug sensitivity score (CAL-51) | drug sensitivity score (CAL-85-1) | drug sensitivity score (DU-4475 [12]) | drug sensitivity score (HCC1143) | drug sensitivity score (HCC1599 [13]) | drug sensitivity score (HCC1937) | drug sensitivity score (HDQ-P1 [14]) | drug sensitivity score (Hs578T) | drug sensitivity score (MDA-MB-231 [15]) | drug sensitivity score (MDA-MB-436 [16]) | drug sensitivity score (MDA-MB-453 [17]) | drug sensitivity score (MDA-MB-468) | drug sensitivity score (MFM-223 [18]) | drug sensitivity score (SK-BR-3) |
| --- | --- | --- | --- | --- | --- | --- | --- | --- | --- | --- | --- | --- | --- | --- | --- | --- | --- | --- | --- | --- | --- | --- | --- | --- | --- | --- | --- |
| Cc1ccc(-n2nc(C(C)(C)C)cc2NC(=O)Nc2ccc(OCCN3CCOCC3)c3ccccc23)cc1 [Doramapimod] | 93.8% | 98.7% | 106% | 90.9% | 93.8% | 92.5% | 86% | 106% | 109% | 0 | 0 | 0 | 0 | 0 | 6.15 | 0 | 0 | 0 | 0 | 0 | 0 | 0 | 0 | 0 | 0 | 0 | 0 |
| C#Cc1cccc(Nc2ncnc3cc(OCCOC)c(OCCOC)cc23)c1 [Erlotinib] | 103% | 110% | 94.9% | 78% | 109% | 96.6% | 109% | 114% | 88.5% | 4.23 | 0 | 3.43 | 5.88 | 0 | 8.53 | 0 | 0 | 3.83 | 4.19 | 7.17 | 0 | 0 | 2.82 | 2.55 | 5.57 | 0 | 3.78 |
| COc1cc([C@@H]2c3cc4c(cc3[C@@H](O[C@@H]3O[C@@H]5CO[C@@H](C)O[C@H]5[C@H](O)[C@H]3O)[C@H]3COC(=O)[C@H]23)OCO4)cc(OC)c1O [Etoposide] | 108% | 77.5% | 115% | 115% | 94.2% | 96.6% | 97.6% | 108% | 98.7% | 0.298 | 11 | 4.94 | 10.3 | 14.5 | 2.33 | 19.8 | 7.4 | 2.06 | 6.25 | 3.32 | 5.23 | 3.4 | 3.41 | 0 | 6.16 | 0 | 11.9 |
